Measured values reported in patent US20240358681A1, “METHODS OF USE OF PPAR AGONIST COMPOUNDS AND PHARMACEUTICAL COMPOSITIONS THEREOF” (Mitobridge, Inc., priority 2021, published 2024).

Experiments:
KSS fibroblasts = assay: Seahorse mitochondrial fatty acid oxidation; assay type: cell-based, human
Experimental: FAO was measured using a Seahorse XF96 (Seahorse Biosciences). MELAS m.3243A>G fibroblasts, KSS fibroblasts, and MERRF tRNA-Lys 8344 cybrids were treated with DMSO or Compound (I) 8 hours after seeding into flasks. 24 hours after initial treatment, media was changed to complete media with DMSO or Compound (I) with reduced glucose (1.1 mM for primary fibroblasts and 5.5 mM for cybrids) and 0.5 mM carnitine. After 48 hours after initial treatment, cells were plated into 96-well cell culture microplates at a density of 40,000 cells per well. FAO assay was initiated 8 hours after plating.
200 μL of KHB was added to the blank wells and 200 μL KHB mixed with control BSA (final 0.074 mM) or BSA-palmitate (final 0.074 mM BSA, 500 μM palmitate was added to the appropriate wells. Stress test components compounds are added in the following sequential order; 1) Oligomycin, 2) FCCP, and 3) Rotenone and Antimycin A for final concentrations of 2.5 μM, 6 μM and 1 μM, respectively. Oxidation of palmitate was assessed using the same ratio as LHON/Leigh fibroblasts.

[1] = test system: PPARδ target genes and FAO genes in quadriceps muscle; assay: Gene expression analysis of quadriceps muscle in aged DIO mice; assay type: in vivo, mouse; conditions: 30 mg/kg oral once daily, 5 weeks
Experimental: All animal studies were performed in accordance with Charles River Laboratories animal welfare protocols. Male Diet-Induced Obese (DIO) C57BL/6NTac mice 28 weeks of age were fed a high fat diet. 20 mice were randomized based on bodyweight into two cohorts of 10 mice each. Five mice were assigned to each treatment group in each cohort (i) vehicle or (ii) Compound (I) at 30 mg/kg via (n=10 total animals per treatment). […] Mice were acclimatized to the treadmill room for one hour on days of training or endurance runs. After an initial 5 min exploration period the treadmill belt moved at 5 m/min for 10 min with the motivation grid intensity set to 0.46 mA. Mice required a few visits to the grid to learn to walk/run on the moving belt and avoid the electric grid shock. After two acclimatization periods the mice learned to avoid the electric grid and stay on the moving belt, with fewer visits to the electric grid. The maximum speed for the endurance run was capped at 16.5 m/min based on speed acclimation runs, which represents the speed at which 25% of animals are running in the top ⅔ of the treadmill at a 5° slope. The mice were considered exhausted if they stayed on the electric grid with no limbs on the treadmill belt for 10 seconds.
Before and after the exhaustion run, blood samples were obtained via a tail vein nick. At the end of the study (day 45) whole blood along with gastrocnemius and quadriceps skeletal muscles were collected following CO2 euthanasia.

PPARδ = target: T1, PPARδ (Mus musculus, UniProt P35396); assay: Mouse EC50 (PPARδ agonist)
T1 sequence (P35396 1-440): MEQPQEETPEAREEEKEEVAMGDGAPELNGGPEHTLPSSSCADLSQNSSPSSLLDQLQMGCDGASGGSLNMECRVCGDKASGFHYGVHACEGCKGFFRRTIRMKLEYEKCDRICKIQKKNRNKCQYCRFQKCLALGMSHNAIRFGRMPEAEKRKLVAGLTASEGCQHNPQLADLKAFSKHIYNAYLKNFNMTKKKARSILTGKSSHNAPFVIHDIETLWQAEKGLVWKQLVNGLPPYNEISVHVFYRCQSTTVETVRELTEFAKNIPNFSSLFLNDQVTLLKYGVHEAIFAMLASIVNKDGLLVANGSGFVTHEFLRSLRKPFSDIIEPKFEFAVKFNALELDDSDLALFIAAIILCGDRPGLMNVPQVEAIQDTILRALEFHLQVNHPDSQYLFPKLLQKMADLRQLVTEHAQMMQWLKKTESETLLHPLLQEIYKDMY

Cc1cnc(-c2ccc(C(F)(F)F)cc2)n1Cc1ccccc1OCCC[C@@H](C)CC(=O)O [Compound (I), (R)-3-Methyl-6-(2-((5-methyl-2-(4-(trifluoromethyl)phenyl)-1H-imidazol-1-yl)methyl)-phenoxy)hexanoic acid]
fatty acid-mediated OXPHOS, dose response (KSS fibroblasts; KSS patient fibroblasts, two biological replicates, FIG. 4B): trending dose response
increase in fatty acid mediated OXPHOS (KSS fibroblasts; KSS, 30 nM): thirty percent or greater
restoration to the fatty acid-mediated OXPHOS of healthy donor fibroblasts (KSS fibroblasts; KSS, 30 nM): near complete restoration
Angptl4 expression increase in quadriceps muscle ([1]; FIG. 5A): 3.5 fold
Pdk4 expression increase in quadriceps muscle ([1]; FIG. 5B): 2.5 fold
Acadvl expression (FAO gene) ([1]; FIG. 5C-5E): significantly increased
Cpt1a expression (FAO gene) ([1]; FIG. 5C-5E): significantly increased
Slc25a20 expression (FAO gene) ([1]; FIG. 5C-5E): significantly increased
EC50 (PPARδ): 14 nM
